Source: US20170145002A1, “DEUTERATED ISOXAZOLE DERIVATIVES AND THEIR USE AS METABOTROPIC GLUTAMATE RECEPTOR POTENTIATORS” (AstraZeneca AB, priority 2015, published 2017)

Legend:
[1] = biological target: mGluR2 (Homo sapiens, UniProt Q14416); conditions: as disclosed in WO 2009/148403; cited from earlier work
[2] = test system: recombinant CYP enzymes (CYP1A2, 2A6, 2B6, 2C8, 2C9, 2C19, 2D6, 2E1, 3A4 and 3A5); experiment: Turnover in recombinant CYP enzymes; type: in vitro ADME; conditions: 0.1 μM and 1 μM
Description: To identify the enzymes responsible for P450 mediated metabolism, the turnover of Compound A was tested in recombinant CYP enzymes (CYP1A2, 2A6, 2B6, 2C8, 2C9, 2C19, 2D6, 2E1, 3A4 and 3A5) at 0.1 μM and 1 μM.

[3] = biological target: T1, human metabotropic glutamate receptor 2 (mGluR2) (Homo sapiens, UniProt Q14416); experiment: Binding Assay (mGluR2 GTPγ35S assay); type: biochemical; conditions: membranes from CHO-K1 cells expressing human mGluR2; L-glutamate and GTPγ35S stimulation, 45 minutes, SPA
T1 construct: expressed in transfected cells; host or cells: CHO-K1
T1 sequence (Q14416 19-872): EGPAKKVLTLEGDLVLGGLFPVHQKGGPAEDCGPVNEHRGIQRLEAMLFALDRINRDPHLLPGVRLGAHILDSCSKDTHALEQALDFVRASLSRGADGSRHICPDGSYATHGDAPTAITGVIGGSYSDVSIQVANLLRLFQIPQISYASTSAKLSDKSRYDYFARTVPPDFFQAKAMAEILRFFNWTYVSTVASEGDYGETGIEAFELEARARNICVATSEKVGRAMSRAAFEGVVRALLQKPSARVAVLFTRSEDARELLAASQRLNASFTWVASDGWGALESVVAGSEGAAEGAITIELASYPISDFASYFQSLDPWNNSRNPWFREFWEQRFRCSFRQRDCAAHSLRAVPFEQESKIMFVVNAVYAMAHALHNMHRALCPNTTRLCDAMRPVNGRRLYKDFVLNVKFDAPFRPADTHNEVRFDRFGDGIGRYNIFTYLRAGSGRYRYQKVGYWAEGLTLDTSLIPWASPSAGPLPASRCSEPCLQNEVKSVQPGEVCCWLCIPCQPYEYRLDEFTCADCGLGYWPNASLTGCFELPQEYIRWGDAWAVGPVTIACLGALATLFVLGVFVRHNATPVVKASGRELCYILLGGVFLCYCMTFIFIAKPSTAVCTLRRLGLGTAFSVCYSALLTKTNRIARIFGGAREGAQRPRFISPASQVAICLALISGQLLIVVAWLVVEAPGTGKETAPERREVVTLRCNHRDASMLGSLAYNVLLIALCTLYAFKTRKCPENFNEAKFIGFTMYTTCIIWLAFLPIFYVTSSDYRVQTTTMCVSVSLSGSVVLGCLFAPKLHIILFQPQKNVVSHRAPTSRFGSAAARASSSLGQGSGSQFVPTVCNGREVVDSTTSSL
Description: This assay was developed to measure the agonist and/or positive allosteric modulator (PAM) activity of compounds at the human metabotropic glutamate receptor 2 (mGluR2).
Crude membranes were prepared from CHO-K1 cells expressing human mGluR2 and stored at −80° C. in aliquots in 2 mg/mL concentrations using a previously described method Fenge et al., Cytotechnology 38 (2002). Assay buffer is defined as 0.22 μM filtered water containing 50 mM HEPES (Teknova), 10 mM MgCl2 (Teknova), 50 mM NaCl (Teknova), 100 μM DTT (Sigma 43819), pH 7.4. Membrane solution containing membranes, beads, and GDP diluted in assay buffer was prepared in excess and incubated for 15 to 30 minutes at room temperature (25° C.). Membrane solution was prepared in a per-well ratio of 1.8 μg membranes, 225 μg PVT-WGA SPA beads (Perkin Elmer RPNQ0001), 3.3 μM GDP (Sigma G7127) in assay buffer to a final per-well volume of 180 μl. Stimulation buffer was prepared by diluting L-glutamate to 10 μM and GTPγ^35S to 1 nM in assay buffer. […] 20 μL of stimulation buffer was then added to individual wells, plates were sealed, incubated on a shaker at room temperature for 45 minutes, centrifuged at 1000 RPM for 5 minutes and then assessed using a ^35S SPA Program (1 minute read time. Low Background Paralux) on a MicroBeta instrument (PerkinElmer, Waltham, Massachusetts).

[4] = Pharmacokinetics after intravenous bolus in rats; type: in vivo; conditions: male Wistar rat, nominal dose 1.0 mg/kg, plasma
Description: The animals were single dosed via intravenous (IV) bolus to tail vein over approximately 5 seconds. The animals were not fasted prior to dosing. The single dose formulation samples were collected from middle of formulation and stored at 5±3° C. for potential analysis. Animals were evaluated during in-life phase.
The blood samples were centrifuged at 2000 g for 5 minutes at 4° C. to obtain plasma. Plasma samples were stored in polypropylene tubes, quickly frozen in ice box and kept at −80° C. Plasma samples were deprotainated by solvent precipitation. Concentration of Compounds A and D in plasma and tissue samples were analyzed using a LC-MS/MS method. WinNonlin version 6.2 will be used for pharmacokinetic parameters calculations. AUC was calculated using log trapezoidal method.

[5] = as disclosed in WO 2009/148403; cited from earlier work
[6] = biological target: hERG ion channel (Homo sapiens, UniProt Q12809); conditions: as disclosed in WO 2009/148403; cited from earlier work
hERG ion channel, sequence (Q12809 whole entry): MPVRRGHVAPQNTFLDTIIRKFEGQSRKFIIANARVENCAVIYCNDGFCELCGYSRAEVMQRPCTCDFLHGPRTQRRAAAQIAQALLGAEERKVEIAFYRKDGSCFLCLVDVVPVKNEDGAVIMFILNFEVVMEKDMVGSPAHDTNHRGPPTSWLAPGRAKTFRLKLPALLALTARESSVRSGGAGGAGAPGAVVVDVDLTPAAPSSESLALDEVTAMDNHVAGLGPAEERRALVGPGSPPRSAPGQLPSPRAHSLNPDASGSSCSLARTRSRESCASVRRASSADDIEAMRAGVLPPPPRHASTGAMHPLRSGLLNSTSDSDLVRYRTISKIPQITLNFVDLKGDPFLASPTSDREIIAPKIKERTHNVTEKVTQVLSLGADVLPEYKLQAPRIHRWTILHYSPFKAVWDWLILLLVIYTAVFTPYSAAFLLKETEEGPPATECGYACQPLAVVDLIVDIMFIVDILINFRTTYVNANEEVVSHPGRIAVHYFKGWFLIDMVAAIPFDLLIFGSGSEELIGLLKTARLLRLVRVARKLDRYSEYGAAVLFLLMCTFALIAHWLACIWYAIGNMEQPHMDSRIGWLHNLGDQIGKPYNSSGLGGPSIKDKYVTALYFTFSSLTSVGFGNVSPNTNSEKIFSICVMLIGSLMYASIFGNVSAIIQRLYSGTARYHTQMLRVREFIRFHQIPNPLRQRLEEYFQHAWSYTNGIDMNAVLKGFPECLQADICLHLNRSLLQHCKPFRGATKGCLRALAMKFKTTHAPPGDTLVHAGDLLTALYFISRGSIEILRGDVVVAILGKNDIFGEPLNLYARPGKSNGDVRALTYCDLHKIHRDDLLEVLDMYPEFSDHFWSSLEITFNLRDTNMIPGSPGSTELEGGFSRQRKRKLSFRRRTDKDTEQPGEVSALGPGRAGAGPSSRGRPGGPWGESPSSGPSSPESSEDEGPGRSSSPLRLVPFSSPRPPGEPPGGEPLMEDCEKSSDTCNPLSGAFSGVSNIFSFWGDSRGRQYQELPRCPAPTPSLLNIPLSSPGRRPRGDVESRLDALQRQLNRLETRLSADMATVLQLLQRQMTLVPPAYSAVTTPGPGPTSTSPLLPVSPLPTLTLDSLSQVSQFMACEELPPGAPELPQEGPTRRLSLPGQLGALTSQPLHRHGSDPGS

[7] = Compound turnover and metabolite formation in human hepatocytes with or without CYP3A inhibitor ketoconazole; type: in vitro ADME
Description: Approximately 10% of Compound A disappeared in 60 minutes.
Since Compound D was predominantly metabolized by CYP3A4, further experiments were conducted with Compound A in human hepatocytes in the presence and absence of CYP3A inhibitor ketoconazole. […] Parent disappearance data indicated a CYP3A involvement in the metabolism of Compound A (FIG. 1); however, the very low intrinsic clearance values make it difficult to provide an accurate determination of a percentage involvement of CYP3A via a substrate depletion method as described above.
Within the same experiments, the formation of Compound A metabolites in the absence of ketoconazole was observed (FIG. 2).

[8] = Metabolite identification and relative abundance in human hepatocytes; type: in vitro ADME; conditions: Compound A 10 μM in human hepatocytes (1 million cells/mL), 4 hours, 37° C.
Description: Compound A was incubated at 10 μM in human hepatocytes (1 million cells/mL) for 4 hours at 37° C. under air with 5% CO2. The reaction was stopped by adding acetonitrile at a ratio of 3:1. Following centrifugation the supernatant was transferred to a clean tube and dried under a stream of N2. Following reconstitution in 30% acetonitrile, aliquots of the sample were injected onto a LC/UV/MS system for metabolite identification and profiling. This allowed assessment of the metabolites formed and an indication of their relative abundance (via UV, Table 6).

mGluR2, sequence (Q14416 19-872): as the sequence (Q14416 19-872) above

| Structure (SMILES) | mGluR2 modulator activity [1] | Turnover in recombinant CYP enzymes [2] | EC50 [3] | AUC [4] | clearance [4] | half-life [4] | Solubility [5] | Capacity to activate the hERG ion channel [6] | Turnover in human hepatocytes [7] | Parent compound disappeared ([7]; 60 minutes, absence of ketoconazole) | Turnover in presence of CYP3A inhibitor ([7]; with ketoconazole) | Relative UV abundance (%) Human [8] |
| --- | --- | --- | --- | --- | --- | --- | --- | --- | --- | --- | --- | --- |
| C[C@@H](C1CC1)N1Cc2cc(-c3cc(C(=O)N4CCOCC4)no3)cc(Cl)c2C1=O [Compound D, (S)-7-chloro-2-(1-cyclopropylethyl)-5-(3-(morpholine-4-carbonyl)isoxazol-5-yl)isoindolin-1-one, reference compound] | highly active | predominantly metabolised by CYP3A4 | 121 ± 56 nM | 0.915 µM·h | 44.3 mL/min/kg | 48.8 min | favorable solubility | low capacity to activate the hERG ion channel |  |  |  |  |
| [2H]C1([2H])OC([2H])([2H])C([2H])([2H])N(C(=O)c2cc(-c3cc(Cl)c4c(c3)CN([C@@H](C)C3CC3)C4=O)on2)C1([2H])[2H] [Compound A, (S)-7-chloro-2-(1-cyclopropylethyl)-5-(3-(morpholine-4-carbonyl-2,2,3,3,5,5,6,6-d8)isoxazol-5-yl)isoindolin-1-one] |  | No significant turnover was observed | 170 ± 9 nM | 1.29 µM·h | 31.1 mL/min/kg | 45.7 min |  |  | very low turnover | Approximately 10% | No turnover was observed | 94.2% |
